The values that follow come from patent US4851519A, “Pyrimidine derivatives” (Hoffmann-La Roche Inc., priority 1986, dated 1989).

pIC50: −log10 of the molar value.

Chain of herpes simplex virus type 2 (HSV-2) thymidine kinase (P04407 whole entry): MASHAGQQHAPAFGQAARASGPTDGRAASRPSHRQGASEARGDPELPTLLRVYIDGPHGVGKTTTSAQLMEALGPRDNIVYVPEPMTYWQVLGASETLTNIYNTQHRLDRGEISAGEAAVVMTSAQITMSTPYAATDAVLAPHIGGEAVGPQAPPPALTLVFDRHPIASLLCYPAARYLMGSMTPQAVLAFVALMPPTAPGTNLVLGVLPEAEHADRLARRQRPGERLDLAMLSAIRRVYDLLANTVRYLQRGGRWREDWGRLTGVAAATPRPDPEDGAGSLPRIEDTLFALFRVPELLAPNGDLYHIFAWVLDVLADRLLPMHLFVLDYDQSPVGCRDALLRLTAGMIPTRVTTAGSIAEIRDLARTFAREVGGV

The first assay addresses herpes simplex virus type 2 (HSV-2) thymidine kinase (Human herpesvirus 2, UniProt P04407). Kind of assay: inhibition of herpes simplex virus type 2 (HSV-2) thymidine kinase in vitro. In kind it is biochemical.
Conditions: not given
The method, then: In this test, the assay mixture contains […] Tris-HCl, pH 8, 5 mM magnesium chloride, 5 mM ATP, 0.3 μM ^3 H-thymidine (50 Ci/mmol), suitably diluted thymidine kinase extract and various concentrations of a compound of formula I or a tautomer thereof in a total volume of 100 μl. Assays are incubated at 37° C. for 30 minutes and the reaction is terminated by immersion in a boiling water bath for 2 minutes. 85 μl aliquots from each assay are then dried on to DEAE-cellulose paper discs and the unphosphorylated ^3 H-thymidine is removed by washing in 4 mM ammonium formate. The radioactivity remaining bound to the discs is then measured by scintillation spectrophotometry. The degree of inhibition at each concentration of compound of formula I or tautomer thereof is expressed as a percentage of the control reaction (100%) after substracting a measured blank value which represents the amount of radioactivity bound to the disc from a reaction containing heat inactivated enzymes. the IC50 value, namely, the concentration of compound of formula I or tautomer thereof which inhibits enzyme activity by 50%, is then calculated. The results obtained with representative compounds of formula I are complied in the following Table: […]
Take `CCc1cn([C@H]2C[C@H](O)[C@@H](CNC(=O)Cc3c(Cl)cccc3Cl)O2)c(=O)[nH]c1=O` [Compound B, 5'-[2-(2,6-dichlorophenyl)acetamido]-2',5'-dideoxy-5-ethyluridine]: the pIC50 is 8.52.

The same assay, now with this note: HSV-2 thymidine kinase extract; 0.3 μM 3H-thymidine, 5 mM ATP, pH 8, 37° C., 30 minutes; read-out: IC50 (concentration which inhibits enzyme activity by 50%).
`CCc1cn([C@H]2C[C@H](O)[C@@H](CNC(=O)C(C)Oc3ccc(Cl)cc3Cl)O2)c(=O)[nH]c1=O` (mixture of isomers) [Compound C, 5'-[2(RS)-(2,4-dichlorophenoxy)propionamido]-2',5'-dideoxy-5-ethyluridine]: the pIC50 is 8.43.

Regarding `CCc1cn([C@H]2C[C@H](O)[C@@H](CNC(=O)C(C)Oc3ccccc3-c3ccccc3)O2)c(=O)[nH]c1=O` (mixture of isomers) [Compound E, 2',5'-dideoxy-5-ethyl-5'-[2(RS)-(2-phenylphenoxy)propionamido]uridine], the pIC50 is 8.30.

As to `CCc1cn([C@@H]2O[C@H](CNC(=O)C(C)Oc3ccc(Cl)cc3Cl)[C@@H](O)[C@@H]2F)c(=O)[nH]c1=O` (mixture of isomers) [Compound F, 1-[5-[2-(RS)-(2,4-dichlorophenoxy)propionamido]-2,5-dideoxy-2-fluoro-β-D-arabinofuranosyl]-5-ethyluracil], the pIC50 is 8.40.

As for `CCc1cn([C@H]2C[C@H](O)[C@@H](CNC(=O)C(C)Oc3cc(Cl)c(Cl)cc3Cl)O2)c(=O)[nH]c1=O` (mixture of isomers) [Compound G, 5'-[2(RS)-(2,4,5-trichlorophenoxy)propionamido]-2',5'-dideoxy-5-ethyluridine], the pIC50 is 8.89.

For `CCc1cn([C@H]2C[C@H](O)[C@@H](CNC(=O)C(C)Oc3ccc(Cl)cc3[N+](=O)[O-])O2)c(=O)[nH]c1=O` (mixture of isomers) [Compound H, 5'-[2(RS)-(4-chloro-2-nitrophenoxy)propionamido]-2',5'-dideoxy-5-ethyluridine], the pIC50 was 8.57.

With `CCc1cn([C@H]2C[C@H](O)[C@@H](CNC(=O)C(Oc3ccc(Cl)cc3Cl)c3ccccc3)O2)c(=O)[nH]c1=O` (mixture of isomers) [Compound I, 5'-[2(RS)-(2,4-dichlorophenoxy)-2-phenylacetamido]-2',5'-dideoxy-5-ethyluridine], the pIC50 is 8.33.

Consider `CCc1cn([C@H]2C[C@H](O)[C@@H](CNC(=O)C(C)Oc3cc(OC)c(Cl)cc3Cl)O2)c(=O)[nH]c1=O` (mixture of isomers) [Compound J, 5'-[2(RS)-(2,4-dichloro-5-methoxyphenoxy)propionamido]-2',5'-dideoxy-5-ethyluridine], for which the pIC50 was 8.92.

As for `CCCc1cn([C@H]2C[C@H](O)[C@@H](CNC(=O)C(C)Oc3ccc(Cl)cc3Cl)O2)c(=O)[nH]c1=O` (mixture of isomers) [Compound K, 5'-[2(RS)-(2,4-dichlorophenoxy)propionamido]-2',5'-dideoxy-5-propyluridine], the pIC50 is 8.46.

As for `CCc1cn([C@H]2C[C@H](O)[C@@H](CNC(=O)Cc3ccccc3Br)O2)c(=O)[nH]c1=O` [Compound A, 5'-[2-(2-bromophenyl)acetamido]-2',5'-dideoxy-5-ethyluridine], the pIC50 is 7.70.

`CCc1cn([C@H]2C[C@H](O)[C@@H](CNC(=O)Cc3ccc(-c4ccccc4)cc3)O2)c(=O)[nH]c1=O` [Compound D, 5'-[2-(4-biphenylyl)acetamido]-2',5'-dideoxy-5-ethyluridine]: the pIC50 is 7.15.
